In ChEMBL document CHEMBL1201862, “PubChem BioAssay data set” (2004):
Activity calls are given as the source filed them. For most assays here, no stated cut-off is given here; in the data, actives have a measured EC50 and inactives only a lower limit.

Legend:
[1] = viability of PTEN-deleted HCT116 cells – cell-based, HCT116 PTEN knockout, dose response (AID 1047); type: functional;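 further: HCT116 colon tumor cells with PTEN knocked out; cells exposed to compound for 60 hours before readout; potency for loss of cell viability measured by luminescence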
[2] = molecular target: T1, Zinc finger protein mex-5 (Caenorhabditis elegans, UniProt Q9XUB2); experiment: potency of MEX-5 RNA-binding blockers – biochemical, C. elegans, fluorescence polarization, dose response (AID 1960)
T1 sequence (Q9XUB2 whole entry): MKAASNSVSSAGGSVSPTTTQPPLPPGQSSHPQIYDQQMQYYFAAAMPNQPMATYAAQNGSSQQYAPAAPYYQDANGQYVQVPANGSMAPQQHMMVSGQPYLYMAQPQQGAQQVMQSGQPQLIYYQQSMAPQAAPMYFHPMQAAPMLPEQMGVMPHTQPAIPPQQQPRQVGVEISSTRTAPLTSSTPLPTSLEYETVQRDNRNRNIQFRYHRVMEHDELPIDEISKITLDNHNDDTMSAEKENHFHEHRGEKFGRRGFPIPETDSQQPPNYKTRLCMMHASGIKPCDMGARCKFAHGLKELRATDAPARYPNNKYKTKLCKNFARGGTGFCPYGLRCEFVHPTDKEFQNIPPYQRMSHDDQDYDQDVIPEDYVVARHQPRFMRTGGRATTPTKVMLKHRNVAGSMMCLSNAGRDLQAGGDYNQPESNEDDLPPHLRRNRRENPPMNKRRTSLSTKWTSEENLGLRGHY

[3] = molecular target: T2, RNA-binding protein pos-1 (Caenorhabditis elegans, UniProt G5EF15); experiment: disruptors of C. elegans POS-1 RNA interaction – biochemical, fluorescence polarization, dose response (AID 1964);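 further: purified POS-1 fused to maltose binding protein made in E. coli; potency of compounds blocking POS-1 binding to fluorescent RNA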
T2 sequence (G5EF15 whole entry): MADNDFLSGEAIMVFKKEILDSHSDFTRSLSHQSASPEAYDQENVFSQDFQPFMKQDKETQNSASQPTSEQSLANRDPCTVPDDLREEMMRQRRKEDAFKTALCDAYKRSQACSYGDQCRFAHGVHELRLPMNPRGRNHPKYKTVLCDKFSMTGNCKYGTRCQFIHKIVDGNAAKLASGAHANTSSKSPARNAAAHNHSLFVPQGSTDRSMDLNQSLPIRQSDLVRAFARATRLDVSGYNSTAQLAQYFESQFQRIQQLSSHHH

[4] = viability of HCT116 lacking mutant beta-catenin – cell-based, human colon tumor, dose response (AID 1045); type: functional;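 further: HCT116 colon tumor cells with beta catenin knocked out; cells exposed to compound for 60 hours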
[5] = molecular target: T3, Coagulation factor XII (Homo sapiens, UniProt P00748); type: functional;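 further: activated factor XIIa alpha cleaving a fluorogenic AMC peptide substrate; inhibitor potency from loss of enzyme activity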
T3 sequence (P00748 whole entry): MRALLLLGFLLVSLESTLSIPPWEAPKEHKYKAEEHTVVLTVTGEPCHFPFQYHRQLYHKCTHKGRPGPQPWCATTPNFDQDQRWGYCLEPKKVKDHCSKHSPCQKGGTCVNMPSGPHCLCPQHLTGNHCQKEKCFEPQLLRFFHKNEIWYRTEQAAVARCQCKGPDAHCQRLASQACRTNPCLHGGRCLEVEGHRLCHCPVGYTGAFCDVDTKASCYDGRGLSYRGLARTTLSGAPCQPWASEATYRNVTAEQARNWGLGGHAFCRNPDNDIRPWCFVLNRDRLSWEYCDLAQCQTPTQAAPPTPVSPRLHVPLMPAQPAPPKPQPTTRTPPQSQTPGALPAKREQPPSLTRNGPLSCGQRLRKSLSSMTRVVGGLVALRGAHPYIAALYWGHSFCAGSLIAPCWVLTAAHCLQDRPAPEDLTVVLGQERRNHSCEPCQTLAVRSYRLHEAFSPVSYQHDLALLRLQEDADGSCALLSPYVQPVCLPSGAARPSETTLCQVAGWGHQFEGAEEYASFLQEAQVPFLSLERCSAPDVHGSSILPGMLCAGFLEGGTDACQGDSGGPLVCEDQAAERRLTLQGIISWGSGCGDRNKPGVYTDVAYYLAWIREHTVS

[6] = molecular target: Luciferin 4-monooxygenase (Photinus pyralis, UniProt P08659); experiment: inhibition of purified Photinus pyralis luciferase – biochemical, luminescence, dose response (AID 1891)
[7] = Luminescence Cell-Based Dose Confirmation HTS to Identify Inhibitors of Platelet Dense Granule Release. [Related pubchem assays: 1663 (Primary HTS), 1678 (Summary of Project)]; type: functional
[8] = molecular target: T4, Heat shock factor protein 1 (Mus musculus, UniProt P38532); experiment: decrease of HSF1-responsive luciferase luminescence – cell-based, NIH3T3, dose retest, confirmation (AID 2382); type: functional;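 further: NIH3T3 fibroblasts with HSF1-driven luciferase reporter stressed by proteasome inhibitor MG132; luminescence from HSF1-driven luciferase expression after 8 hours of MG132 stress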
T4 sequence (P38532 whole entry): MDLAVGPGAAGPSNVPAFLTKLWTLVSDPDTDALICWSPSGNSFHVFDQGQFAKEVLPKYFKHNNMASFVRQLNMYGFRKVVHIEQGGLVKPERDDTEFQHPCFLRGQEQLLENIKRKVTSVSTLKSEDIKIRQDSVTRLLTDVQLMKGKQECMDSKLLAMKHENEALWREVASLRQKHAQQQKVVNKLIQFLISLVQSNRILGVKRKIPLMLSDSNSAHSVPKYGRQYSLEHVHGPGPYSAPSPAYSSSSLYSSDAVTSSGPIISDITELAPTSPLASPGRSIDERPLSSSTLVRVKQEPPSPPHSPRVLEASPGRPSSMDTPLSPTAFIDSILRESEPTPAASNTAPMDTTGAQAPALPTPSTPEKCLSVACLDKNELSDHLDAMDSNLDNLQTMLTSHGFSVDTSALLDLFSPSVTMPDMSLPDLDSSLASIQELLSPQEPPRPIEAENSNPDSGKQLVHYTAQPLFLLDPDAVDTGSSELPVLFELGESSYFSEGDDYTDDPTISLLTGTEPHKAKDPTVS

[9] = cells; type: functional, cell-based
[10] = cells; type: functional, cell-based; remark: listed apart in the source
[11] = DRD fibroblast viability loss – cell-based, non-viral oncogenic, luminescence, dose response (AID 1934); type: functional; conditions: Homo sapiens
[12] = system: BJ; experiment: cells; type: functional, cell-based; conditions: Homo sapiens
[13] = system: BJ; experiment: BJ-TERT-LT-ST fibroblast viability loss – cell-based, RAS-independent, luminescence, dose response (AID 1935); type: functional; conditions: Homo sapiens;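 further: BJ fibroblasts immortalized with TERT plus LT and ST oncogenes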
[14] = system: BJ; experiment: BJ-TERT fibroblast viability loss – cell-based, RAS-independent, luminescence, dose response (AID 1933); type: functional; conditions: Homo sapiens
[15] = system: Streptococcus sp. 'group A'; experiment: Streptococcus pyogenes SK(-)GAS viability under kanamycin – luminescence, BacTiterGlo, confirmation, counter-screen for streptokinase expression inhibitor project, dose response (AID 1900); type: functional, organism-based
[16] = system: Streptococcus; experiment: GAS UMAA2166 growth inhibition – luminescence, BacTiterGlo, counter-screen for streptokinase expression inhibitor project, dose response (AID 1915); type: functional, organism-based;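 further: potency for reduction of bacterial viability or growth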
[17] = molecular target: T5, Streptokinase A (Streptococcus pyogenes serotype M1, UniProt P10520); experiment: viability-normalized secreted streptokinase activity reduction – plasminogen activation absorbance, OD405, dose response (AID 1914); type: functional, Streptococcus pyogenes M1 GAS;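 further: secreted streptokinase activity via plasminogen activation per viability signal from cell pellet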
T5 sequence (P10520 whole entry): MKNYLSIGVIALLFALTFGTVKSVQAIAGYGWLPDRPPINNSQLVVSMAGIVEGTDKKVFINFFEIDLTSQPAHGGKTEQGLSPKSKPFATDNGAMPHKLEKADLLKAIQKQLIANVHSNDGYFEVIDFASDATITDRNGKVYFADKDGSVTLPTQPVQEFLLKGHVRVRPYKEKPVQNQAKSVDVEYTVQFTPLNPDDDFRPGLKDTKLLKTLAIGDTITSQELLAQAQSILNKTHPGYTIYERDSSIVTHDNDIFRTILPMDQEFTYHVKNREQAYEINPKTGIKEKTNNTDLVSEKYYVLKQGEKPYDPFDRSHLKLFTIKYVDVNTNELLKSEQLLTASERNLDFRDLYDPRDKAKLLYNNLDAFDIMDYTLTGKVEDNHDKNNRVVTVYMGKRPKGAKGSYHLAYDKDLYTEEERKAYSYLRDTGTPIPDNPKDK

Sequence of Luciferin 4-monooxygenase (P08659 whole entry): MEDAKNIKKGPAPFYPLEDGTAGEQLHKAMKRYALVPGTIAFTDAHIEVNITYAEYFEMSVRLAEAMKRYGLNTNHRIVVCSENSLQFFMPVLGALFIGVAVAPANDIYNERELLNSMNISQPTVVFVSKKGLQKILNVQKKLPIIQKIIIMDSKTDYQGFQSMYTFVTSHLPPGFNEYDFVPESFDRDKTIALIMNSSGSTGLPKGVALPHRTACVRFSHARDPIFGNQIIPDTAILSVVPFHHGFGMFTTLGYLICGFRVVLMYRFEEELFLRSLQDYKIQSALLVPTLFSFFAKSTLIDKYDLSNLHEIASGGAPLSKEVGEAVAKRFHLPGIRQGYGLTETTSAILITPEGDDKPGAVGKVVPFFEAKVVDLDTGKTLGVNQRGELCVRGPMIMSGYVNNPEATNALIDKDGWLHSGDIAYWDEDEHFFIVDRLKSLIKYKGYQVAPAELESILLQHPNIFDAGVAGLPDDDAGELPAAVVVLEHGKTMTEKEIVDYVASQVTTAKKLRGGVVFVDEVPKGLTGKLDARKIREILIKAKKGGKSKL

## Cn1cccc1/C=C1\C(=O)NC(=O)N(CCC2=CCCCC2)C1=O
[1]
  EC50: 67.2 µM (active)
[2]
  EC50: 35.6 µM (inconclusive)
[3]
  EC50: 230 µM (inconclusive)
[4]
  EC50: 82.1 µM (active)

## CN1CCN(c2ccc(CNS(=O)(=O)Cc3ccc(Cl)cc3)cc2)CC1
[5]
  IC50: > 50 µM (inactive)

## Cc1cc(=O)oc2cc(OCCSCCN3CCCC3)ccc12
[6]
  EC50: > 112 µM (not active)
[7]
  EC50: > 112 µM (not active)

## CCN1C(=O)C(CC(=O)Nc2ccc(OC)cc2)N(Cc2ccc3c(c2)OCO3)C1=S (stereo not drawn)
[8]
  EC50: > 195 µM (not active)

## COc1cc(Cl)c(C)cc1NC(=O)CSC
[5]
  IC50: > 50 µM (inactive)

## CCOc1ccccc1NC(=O)COC(=O)Cc1cccs1
[6]
  EC50: > 112 µM (not active)
[7]
  EC50: > 112 µM (not active)

## CC(=O)NCCC(=O)Nc1cc(S(=O)(=O)N2CCOCC2)ccc1N1CCOCC1
[9]
  EC50: > 350 µM (not active)
[10]
  EC50: > 350 µM (not active)

## COC(=O)c1ccc(C)c(NC(=O)CN(c2cc(OC)ccc2OC)S(C)(=O)=O)c1
[11]
  EC50: > 150 µM (inconclusive)
[12]
  EC50: > 150 µM (not active)
[13]
  EC50: > 150 µM (not active)
[14]
  EC50: > 150 µM (not active)

## CCN(Cc1ccccc1)C(=O)CCNS(=O)(=O)c1ccc2c(c1)CC(C)N2C(C)=O (stereo not drawn)
[9]
  EC50: > 350 µM (not active)
[10]
  EC50: > 350 µM (not active)

## COc1ccccc1CNC(=O)c1cccc(NC(=O)c2ccccc2)c1
[9]
  EC50: > 350 µM (not active)
[10]
  EC50: 56.2 µM (active)

## CC1=NC(C#N)=C(C#N)NC(C)(C)C1
[9]
  EC50: > 350 µM (not active)
[10]
  EC50: > 350 µM (not active)

## CCOc1ccc(NC(=O)c2ccc3c(=O)n(-c4ccc(OC)cc4OC)c(=S)[nH]c3c2)cc1
[15]
  EC50: 7.86 µM (active)
[16]
  EC50: 12.4 µM (active)
[17]
  EC50: > 150 µM (not active)
[8]
  EC50: > 195 µM (not active)

## CCCNC(=O)N1CCCC(C(=O)c2cccc(Cl)c2)C1 (stereo not drawn)
[8]
  EC50: > 195 µM (not active)
